Experimental data: the supplement of paper PMC10307832

Assays:
Assay in all cases: relative viability (nuclei count vs DMSO), 5 days (fraction); higher = more cells survive
RAF265 + Tozasertib = compound: Cn1c(Nc2ccc(C(F)(F)F)cc2)nc2cc(Oc3ccnc(-c4ncc(C(F)(F)F)[nH]4)c3)ccc21 [RAF265] + Cc1cc(Nc2cc(N3CCN(C)CC3)nc(Sc3ccc(NC(=O)C4CC4)cc3)n2)n[nH]1 [Tozasertib] (partner 0.1 µM)
Outline: (§1)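 Lung cancer cell lines were seeded in 1536-well plates and dosed by pin tool the next day, with either a single drug or a fixed anchor-drug dose combined with five library-drug doses (not always all listed) spaced in √10 steps. Five days later, one step fixed the cells and stained their nuclei (final 0.05% Triton X-100, 1% formaldehyde, 1 ug/ml Hoechst), and nuclei were counted on 4× images. Relative viability is the nuclei count in treated wells divided by the count in vehicle wells, and each value is the median of duplicate plates.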

IPA-3 + Linsitinib = compound: C1=CC=C2C(=C1)C=CC(=C2SSC3=C(C=CC4=CC=CC=C43)O)O [IPA-3] + C[C@]1(O)C[C@@H](c2nc(-c3ccc4ccc(-c5ccccc5)nc4c3)c3c(N)nccn32)C1 [Linsitinib] (partner 1 µM)
Outline: as §1

IPA-3 + Foretinib = compound: C1=CC=C2C(=C1)C=CC(=C2SSC3=C(C=CC4=CC=CC=C43)O)O [IPA-3] + COc1cc2c(Oc3ccc(NC(=O)C4(C(=O)Nc5ccc(F)cc5)CC4)cc3F)ccnc2cc1OCCCN1CCOCC1 [Foretinib] (partner 0.25 µM)
Outline: as §1

RAF265 + Linsitinib = compound: Cn1c(Nc2ccc(C(F)(F)F)cc2)nc2cc(Oc3ccnc(-c4ncc(C(F)(F)F)[nH]4)c3)ccc21 [RAF265] + C[C@]1(O)C[C@@H](c2nc(-c3ccc4ccc(-c5ccccc5)nc4c3)c3c(N)nccn32)C1 [Linsitinib] (partner 1 µM)
Outline: as §1

Cell Line | relative viability (RAF265 + Tozasertib; first compound 0.01 µM) | relative viability (RAF265 + Tozasertib; first compound 0.03162 µM) | relative viability (RAF265 + Tozasertib; first compound 0.1 µM) | relative viability (RAF265 + Tozasertib; first compound 0.3162 µM) | relative viability (RAF265 + Tozasertib; first compound 1 µM) | relative viability (IPA-3 + Linsitinib; first compound 0.2 µM) | relative viability (IPA-3 + Linsitinib; first compound 0.6325 µM) | relative viability (IPA-3 + Linsitinib; first compound 2 µM) | relative viability (IPA-3 + Linsitinib; first compound 6.325 µM) | relative viability (IPA-3 + Linsitinib; first compound 20 µM) | relative viability (IPA-3 + Foretinib; first compound 0.2 µM) | relative viability (IPA-3 + Foretinib; first compound 0.6325 µM) | relative viability (IPA-3 + Foretinib; first compound 2 µM) | relative viability (IPA-3 + Foretinib; first compound 6.325 µM) | relative viability (IPA-3 + Foretinib; first compound 20 µM) | relative viability (RAF265 + Linsitinib; first compound 0.01 µM) | relative viability (RAF265 + Linsitinib; first compound 0.03162 µM) | relative viability (RAF265 + Linsitinib; first compound 0.1 µM) | relative viability (RAF265 + Linsitinib; first compound 0.3162 µM) | relative viability (RAF265 + Linsitinib; first compound 1 µM)
NCI-H1975 | 0.676 | 0.621 | 0.7 | 0.379 | 0.126 | 1.06 | 1.01 | 1.02 | 1.03 | 1.09 | 1.01 | 0.887 | 1.03 | 0.873 | 0.935 | 0.855 | 0.712 | 0.567 | 0.43 | 0.361
NCI-H1993 | 0.606 | 0.57 | 0.571 | 0.593 | 0.594 | 0.707 | 0.688 | 0.761 | 0.782 | 0.612 | 0.833 | 0.654 | 0.813 | 0.776 | 0.728 | 0.68 | 0.763 | 0.66 | 0.713 | 0.722
NCI-H2009 | 0.758 | 0.721 | 0.745 | 0.809 | 0.476 | 1.26 | 1.17 | 1.24 | 1.13 | 1.18 | 1.32 | 1.15 | 1.23 | 1.16 | 1.29 | 1.23 | 1.12 | 1.13 | 1.04 | 0.788
NCI-H2023 | 0.314 | 0.497 | 0.466 | 0.286 | 0.183 | 0.85 | 0.681 | 0.841 | 0.735 | 0.921 | 0.856 | 0.666 | 0.995 | 0.853 | 1.1 | 0.588 | 0.743 | 0.776 | 0.644 | 0.424
NCI-H2085 | 0.965 | 0.706 | 0.914 | 0.822 | 0.558 | 0.923 | 0.954 | 0.856 | 0.992 | 1.21 | 0.948 | 0.824 | 1.28 | 0.949 | 1.04 | 0.894 | 0.945 | 0.938 | 0.98 | 0.917
NCI-H2087 | 0.268 | 0.266 | 0.284 | 0.205 | 0.152 | 1.1 | 1.05 | 0.925 | 0.86 | 0.995 | 1.26 | 1.12 | 1.05 | 1.03 | 1.18 | 0.827 | 0.844 | 0.9 | 0.699 | 0.587
NCI-H2126 | 0.905 | 0.844 | 0.826 | 0.881 | 0.607 | 0.74 | 0.659 | 0.7 | 0.768 | 0.812 | 1.21 | 1.23 | 0.904 | 1.17 | 1.18 | 0.712 | 0.691 | 0.743 | 0.574 | 0.49
NCI-H2228 | 0.329 | 0.235 | 0.334 | 0.211 | 0.131 | 0.706 | 0.857 | 0.642 | 0.715 | 0.887 | 0.979 | 0.805 | 0.842 | 1.07 | 1.22 | 0.628 | 0.698 | 0.409 | 0.436 | 0.327
